Results: patent US6500835B2, “Preventive or therapeutic drugs for fibrosis containing chymase inhibitors as the active ingredient” (Suntory Limited, priority 2000, dated 2002)
Counter-ions that a name gives are not always drawn.

Assays:
[1] = target: T1, Human heart chymase (Homo sapiens, UniProt P23946); test: Measurement of chymase inhibitory activity (Suc-Ala-Ala-Pro-Phe-MCA substrate); format: biochemical; conditions: 30° C., 10 min preincubation
T1 construct: Human heart chymase was purified according to the method of Urata et al; from tissue; host or cells: human heart
T1 sequence (P23946 22-247): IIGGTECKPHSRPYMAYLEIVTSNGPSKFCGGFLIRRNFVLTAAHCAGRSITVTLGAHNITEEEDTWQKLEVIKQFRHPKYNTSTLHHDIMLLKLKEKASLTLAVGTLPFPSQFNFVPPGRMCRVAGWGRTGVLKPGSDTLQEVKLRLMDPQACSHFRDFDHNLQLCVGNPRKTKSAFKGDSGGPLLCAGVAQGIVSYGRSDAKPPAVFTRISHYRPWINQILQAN
Experimental: Human heart chymase was purified according to the method of Urata et al. (J. Biol. Chem., 1990, 265, 22348). The inhibitory activity off the compound of the present invention was determined as follows. Purified enzyme was diluted with 0.1M tris HCl buffer (pH=7.5), 1M sodium chloride, and 0.01% Triton X-100 to obtain an enzyme solution having appropriate concentrations. Suc-Ala-Ala-Pro-Phe-MCA (Peptide Institute Inc.) was dissolved in 10 mM dimethyl sulfoxide (hereinafter referred to as DMSO) and diluted 20-fold with 0.1 M Tris-HCl buffer (pH 7.5) containing 1 M sodium chloride and 0.01% Triton X-100 to an appropriate concentration to prepare substrate solution.
5 μl of the test sample in DMSO was added to 75 μl of the enzyme solution and preincubated at 30° C. for 10 minutes. Then, 20 μl of the subs rate solution was added to the test sample-enzyme mixture, and incubated at 30° C. Ten minutes later, 50 μl of 30% acetic acid was added to stop the enzymatic reaction, and the amount of AMC formed was determined using a fluorophotometer. At the same time, 5 μl of DMSO in stead of the test sample was added and reacted simultaneously as a control. The inhibitory activity to human chymase was calculated based on the value of the control, and then the inhibition percentage and the 50% inhibition concentration (IC50) were determined.

[2] = test system: ICR mice; test: Change in hydroxyproline content in lung after intratracheal bleomycin; format: in vivo; conditions: 2 weeks after administration
Experimental: (§1) Pulmonary fibrosis was induced by intratracheal administration of bleomycin (Nippon Kayaku) to 10 week old male ICR mice (Charles River Japan) under anesthesia (n=10). That is, bleomycin (0.04 mg or 0.08 mg) was suspended in 50 μl of saline and administered into the airways using a 100 μl syringe (made by Hamilton Co.) Two weeks after the administration of bleomycin, the lungs were excised and the amount of hydroxyproline, an indicator of tissue collagen, was assayed according to the method as described previously (Anal. Biochem. 19, 249, 1967). Further, the amount of hydroxyproline was expressed as an amount per lung. Further, mice similarly administered saline instead of bleomycin were used as a control (n=10).

[3] = test system: pulmonary chymase; test: Change in pulmonary chymase activity after intratracheal bleomycin; format: in vivo, mice; conditions: bleomycin 0.08 mg intratracheal, 2 weeks after administration
[4] = test system: chymase; test: Effects of chymase inhibitor on chymase activity in tissues of mice after intraperitoneal administration; format: in vivo; conditions: ICR mice, 12 and 24 hours after administration
Experimental: (§2) A chymase inhibitor (Compound 18) was administered intraperitoneally in ICR mice (8 weeks old, n=3). After 12 hours and 24 hours, the chymase was extracted from the small intestines, tongues, back skins, front legs, and rear legs of the mice and the enzymatic activity thereof was determined. The chymase was extracted using a 10 mM phosphate buffer including 2M KCl and 0.1% polyethylene octylphenyl ether (Triton X-100) from the tissues. Chymase activity was determined, by measuring the rate of hydrolysis of synthesized substrate Suc-Phe-Pro-Phe-p-nitroanilide. Saline was administered in 24 hours in control groups.

[5] = test system: Tsk mice; test: Tsk mice, model for scleroderma: thickness of subcutaneous fibrous layer; format: in vivo; conditions: 50 mg/kg/day i.p. once a day for 2 weeks, 13-week old Tsk mice
Experimental: (§3) Collagen content, thickness of subcutaneous fibrous layer, mast cell number, chymase activity and chymase mRNA were measured in the skin of Tsk mice (Rheum. Dis. Clin. North Am. 16, 153, 1990), and compared with the control mice (pallid mice) at the ages of 5, 10, and 20 weeks (n=6). The collagen content was determined by measuring hydroxyproline, the marker for collagen, using HPLC, whereas fibrous layer thickness was determined by histological analysis with Azan staining followed by measuring the area of the fibrous layer using an image analysis system. The density of mast cells was calculated by counting the number of cells with stained granules by toluidine blue staining. Chymase was extracted from the skin according to the method described previously (Arch. Dermatol. Res. 290, 553, 1998), and the activity determined as described in Example 2. The mRNA for the skin chymase (MMCP-4) was measured only at 10 weeks of age by competitive RT-PCR method (Biotechniques 21, 268, 1996).
13-week old Tsk mice (n=5) were intra peritoneally administered a chymase inhibitor (Compound 18) in a dosage of 50 mg/kg/day once a day every day for 2 weeks. Five hours after the final administration, the degree of hypertrophy of the subcutaneous fibrous layer and the skin-chymase activity were measured and compared with the values of the group administered saline. […]

[6] = target: T2, skin chymase (Mus musculus, UniProt P21812); test: Tsk mice, model for scleroderma: skin chymase activity; format: in vivo; conditions: 50 mg/kg/day i.p. once a day for 2 weeks, 13-week old Tsk mice, 5 hours after final administration
T2 construct: Chymase was extracted from the skin according to the method described previously; from tissue; host or cells: skin of Tsk mice
T2 sequence (P21812 21-246): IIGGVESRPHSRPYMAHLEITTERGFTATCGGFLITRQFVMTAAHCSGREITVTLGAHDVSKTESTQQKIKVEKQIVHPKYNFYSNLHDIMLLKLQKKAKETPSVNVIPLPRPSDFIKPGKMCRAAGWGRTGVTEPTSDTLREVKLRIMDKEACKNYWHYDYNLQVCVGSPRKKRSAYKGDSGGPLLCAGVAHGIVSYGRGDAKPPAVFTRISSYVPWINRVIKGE
Experimental: as §2
as §3, with “Chymase was extracted from the skin according to the method described previously (Arch. Dermatol. Res. 290, 553, 1998), and the activity determined as described in Example 2. The mRNA for the skin chymase (MMCP-4) was measured only at 10 weeks of age by competitive RT-PCR method (Biotechniques 21, 268, 1996).” left out

[7] = test system: bleomycin-induced pulmonary fibrosis in mice; test: Bleomycin-induced pulmonary fibrosis model: effect of chymase inhibitor on lung hydroxyproline; format: in vivo, ICR mice; conditions: five days a week over 2 weeks, bleomycin 0.08 mg
Experimental: as §1
Pulmonary fibrosis was induced in accordance with the method described in Example 5 (n=10) and the amount of hydroxyproline in pulmonary tissue was assayed in the same way as in Example 5 in order to investigate the effect of a chymase inhibitor (Compound 34) on pulmonary fibrosis. Further, the chymase inhibitor was suspended in saline containing 0.5% hydroxypropyl cellulose (HPC/saline) and administered intraperitoneally at a dose of 10 mg/kg or 50 mg/kg once a day for five days a week over 2 weeks, starting immediately after the bleomycin administration. […]

Molecule | IC50 [1] | also measured
O=C(O)c1cc(S(=O)(=O)n2c(=O)[nH]c3cc(Cl)ccc3c2=O)ccc1O [Compound 21, 5-[(7-chloro-2,4(1H,3H)-quinazolinedion-3-yl)sulfonyl]salicylic acid] | 340 nM | –
COc1ccc(S(=O)(=O)n2c(=O)[nH]c3cc(Cl)ccc3c2=O)cc1NC(C)=O [Compound 22] | 300 nM | –
COc1ccc2c(=O)n(S(=O)(=O)c3ccc(C(=O)O)c(N)c3)c(=O)[nH]c2c1 [Compound 27, 4-[(7-methoxy-2,4(1H,3H)-quinazolinedion-3-yl)sulfonyl]anthranilic acid] | 4000 nM | –
Nc1cc(S(=O)(=O)n2c(=O)[nH]c3ccc(Cl)cc3c2=O)ccc1C(=O)O [Compound 32, 4-[(6-chloro-2,4(1H,3H)-quinazolinedion-3-yl)sulfonyl]anthranilic acid] | 1500 nM | –
CC(C(=O)O)C(=O)Nc1cccc(S(=O)(=O)n2c(=O)[nH]c3cc(Cl)ccc3c2=O)c1 (stereo not shown) [Compound 13, 2-{3-[(7-chloro-2,4(1H,3H)-quinazolinedion-3-yl)sulfonyl]phenylaminocarbonyl}propionic acid] | 300 nM | –
Nc1ccccc1S(=O)(=O)n1c(=O)[nH]c2cc(Cl)ccc2c1=O [Compound 2, 3-(2-aminobenzenesulfonyl)-7-chloro-2.4(1H,3H)-quinazolinedione] | 140 nM | –
O=C(O)c1ccc(S(=O)(=O)n2c(=O)[nH]c3cc(Cl)ccc3c2=O)cc1O [Compound 16, 4-[(7-chloro-2,4(1H,3H)-quinazolinedion-3-yl)sulfonyl]salicylic acid monosodium salt] | 840 nM | –
Nc1cc(S(=O)(=O)n2c(=O)[nH]c3cc(Cl)ccc3c2=O)ccc1C(=O)O [Compound 17, 4-[(7-chloro-2,4(1H,3H)-quinazolinedion-3-yl)sulfonyl]anthranilic acid] | 140 nM | –
bleomycin | – | hydroxyproline content in the lung as compared with the saline group ([2]; bleomycin 0.04 mg/mouse intratracheal): 1.15 fold; hydroxyproline content in the lung as compared with the saline group ([2]; bleomycin 0.08 mg/mouse intratracheal): 1.25 fold; pulmonary chymase activity relative to the group administered saline [3]: about 4.5 times
Nc1cc(S(=O)(=O)n2c(=O)[nH]c3cc(Cl)ccc3c2=O)ccc1C(=O)[O-].[Na+] [Compound 18, 4-[(7-chloro-2,4(1H,3H)-quinazolinedion-3-yl)sulfonyl]anthranilic acid monosodium salt] | 140 nM | inhibition of chymase activity in the intestines compared with the group administered saline ([4]; small intestines): approximately 80%; inhibition of chymase activity in the tongue, back skin, and legs ([4]; tongue, back skin, legs): about 50%; thickness of the subcutaneous fibrous layer, % of that for the group administered saline [5]: about 60%; skin chymase activity, % of that of the group administered saline [6]: 57%
CS(=O)(=O)O.Nc1cccc(S(=O)(=O)n2c(=O)[nH]c3cc(Cl)ccc3c2=O)c1 [Compound 34, 3-(3-aminobenzenesulfonyl)-7-chloro-2,4-(1H,3H)quinazolinedion methanesulfonic acid salt] | 360 nM | effect on the increase of the amount of hydroxyproline in the lung ([7]; 10 mg/kg i.p. once a day): little effect; rate of suppression of the increase of the amount of hydroxyproline in the lung ([7]; 50 mg/kg i.p. once a day): about 46%
O=c1[nH]c2cc(Cl)ccc2c(=O)n1S(=O)(=O)c1cccc(O)c1 [Compound 1, 7-chloro-3-(3-hydroxybenzenesulfonyl)-2,4(1H,3H)-quinazolinedione] | 360 nM | –
Cc1ccc(S(=O)(=O)n2c(=O)[nH]c3cc(Cl)ccc3c2=O)cc1N [Compound 10, 3-(3-amino-4-methylbenzenesulfonyl)-7-chloro-2,4(1H,3H)-quinazolinedione] | 170 nM | –
COc1ccc(S(=O)(=O)n2c(=O)[nH]c3cc(Cl)ccc3c2=O)cc1NS(C)(=O)=O [Compound 24, 7-chloro-3-(4-methoxy-3-methylsulfonylaminobenzenesulfonyl)-2,4(1H,3H)-quinazolinedione] | 320 nM | –
Nc1cc(S(=O)(=O)n2c(=O)[nH]c3cc(Cl)ccc3c2=O)ccc1Cl [Compound 8, 3-(3-amino-4-chlorobenzenesulfonyl)-7-chloro-2,4(1H,3H)-quinazolinedione] | 35 nM | –
Nc1cccc(S(=O)(=O)n2c(=O)[nH]c3cc(Cl)ccc3c2=O)c1 [Compound 12, 3-(3-aminobenzenesulfonyl)-7-chloro-2,4(1H,3H)-quinazolinedione] | 440 nM | –
O=C(O)C1Oc2ccc(S(=O)(=O)n3c(=O)[nH]c4cc(Cl)ccc4c3=O)cc2NC1=O (racemic) [Compound 29, (±)-6-[(7-chloro-2,4(1H,3H)-quinazolinedion-3-yl)sulfonyl]-3-oxo-1,4-benzoxazine-2-carboxylic acid] | 1700 nM | –
